Assay results reported in patent US12570657B2, “Mesylate salts of heterocyclic cytokinins, compositions containing these derivatives and use thereof” (UNIVERZITA PALACKEHO V OLOMOUCI, priority 2020, dated 2026).

Assays:
[1] = tested on: MCF-7 (breast adenocarcinoma); experiment: In vitro cytotoxicity, Calcein AM assay, MCF7; assay type: cell-based; conditions: Homo sapiens, MCF7, 72 h, 3-day Calcein-AM assay
From the text: (§1) Because toxic compounds adversely affect cell metabolic processes, many standard cytotoxicity assays are based on measuring the rate of metabolism of various artificial substrates. The resulting product is then quantified, for example, by spectrometry. Assays can be easily modified for use in 96-well plates, A microtiter assay based on the quantification of Calcein AM metabolism was used to evaluate the cytotoxicity of cytokinins, for example meta-topolin, ortho-topolin, kinetin, BAP or its mesylate salts, but also a number of other cytokinin mesylate derivatives according to the invention. The test is widely used in drug screening programs and in chemosensitivity testing. In living cells, Calcein AM is enzymatically hydrolyzed and the accumulation of the resulting calcein is manifested by green fluorescence. […] These cells were maintained in standard DMEM or RPMI medium (Sigma, MO, USA) supplemented with heat-inactivated fetal bovine serum (10%) with 2 mM L-glutamine and penicillin-streptomycin (1%) under standard cell culture conditions (37° C., 5% CO2 in a humid environment) and subcultured two or three times a week using a standard trypsinization procedure. Approximately 10,000 cells in 80 μl of medium were seeded in a 96-well microtiter plate. After 12 hours of incubation, the compounds to be tested were added in 20 μl aliquots. Control cultures were treated with DMSO alone. […] After 72 hours of incubation, Calcein AM solution (Molecular Probes) was added to a final concentration of 1 μg/ml and the cells were incubated for another hour.
(§2) Cytoxicity of compounds was tested on panel of cell lines of different histogenetic and species origin.

[2] = tested on: HOS (human osteosarcoma); experiment: In vitro cytotoxicity, Calcein AM assay, HOS; assay type: cell-based; conditions: Homo sapiens, 72 h, 3-day Calcein-AM assay
From the text: as §1, §2

[3] = tested on: K562 (chronic myeloid leukemia); experiment: In vitro cytotoxicity, Calcein AM assay, K-562; assay type: cell-based; conditions: Homo sapiens, K562, 72 h, 3-day Calcein-AM assay
From the text: as §1, §2

[4] = tested on: NIH-3T3; experiment: In vitro cytotoxicity, Calcein AM assay, NIH-3T3; assay type: cell-based; conditions: Mus musculus, NIH3T3, 72 h, 3-day Calcein-AM assay
From the text: Because toxic compounds adversely affect cell metabolic processes, many standard cytotoxicity assays are based on measuring the rate of metabolism of various artificial substrates. The resulting product is then quantified, for example, by spectrometry. Assays can be easily modified for use in 96-well plates, A microtiter assay based on the quantification of Calcein AM metabolism was used to evaluate the cytotoxicity of cytokinins, for example meta-topolin, ortho-topolin, kinetin, BAP or its mesylate salts, but also a number of other cytokinin mesylate derivatives according to the invention. The test is widely used in drug screening programs and in chemosensitivity testing. In living cells, Calcein AM is enzymatically hydrolyzed and the accumulation of the resulting calcein is manifested by green fluorescence. The following cell lines—RPMI 8226 (multiple myeloma), CEM (T-lymphoblastic leukemia), K562 (chronic myeloid leukemia), HL-60 (promyelocytic, leukemia), MCF-7 (breast adenocarcinoma), HeLa (cervical cancer), G361 (malignant melanoma), HOS (human osteosarcoma) and BJ (human foreskin fibroblasts)—were obtained from the American Type Culture Collection (Manassas, VA, USA). These cells were maintained in standard DMEM or RPMI medium (Sigma, MO, USA) supplemented with heat-inactivated fetal bovine serum (10%) with 2 mM L-glutamine and penicillin-streptomycin (1%) under standard cell culture conditions (37° C., 5% CO2 in a humid environment) and subcultured two or three times a week using a standard trypsinization procedure. Approximately 10,000 cells in 80 μl of medium were seeded in a 96-well microtiter plate. After 12 hours of incubation, the compounds to be tested were added in 20 μl aliquots. Control cultures were treated with DMSO alone. […] Serial, 3-fold dilutions (six in total, peak concentrations in 166 μM incubations) of each compound were tested. After 72 hours of incubation, Calcein AM solution (Molecular Probes) was added to a final concentration of 1 μg/ml and the cells were incubated for another hour. Free calcein fluorescence was then quantified using a Fluoroscan Ascent fluorometer (Microsystems), and the percentage of surviving cells in each well was calculated by dividing the OD obtained from each cell by the exposed cells by the mean OD obtained from control wells×100%, Finally, IC50 values (concentration causing a 50% decrease in cellular esterase activity) were calculated for each compound generated from dose-response curves (Krys̆tof et al., 2005, Bioorg. Med. Chem. Lett. 12, 3283-3286). The IC50 values reported here are averages obtained from at least three independent experiments, where the individual replication values fell within 20% of the average. […]

[5] = tested on: G361 (malignant melanoma); experiment: In vitro cytotoxicity, Calcein AM assay, G-361; assay type: cell-based; conditions: Homo sapiens, 72 h, 3-day Calcein-AM assay
From the text: Because toxic compounds adversely affect cell metabolic processes, many standard cytotoxicity assays are based on measuring the rate of metabolism of various artificial substrates. The resulting product is then quantified, for example, by spectrometry. Assays can be easily modified for use in 96-well plates, A microtiter assay based on the quantification of Calcein AM metabolism was used to evaluate the cytotoxicity of cytokinins, for example meta-topolin, ortho-topolin, kinetin, BAP or its mesylate salts, but also a number of other cytokinin mesylate derivatives according to the invention. The test is widely used in drug screening programs and in chemosensitivity testing. In living cells, Calcein AM is enzymatically hydrolyzed and the accumulation of the resulting calcein is manifested by green fluorescence. The following cell lines—RPMI 8226 (multiple myeloma), CEM (T-lymphoblastic leukemia), K562 (chronic myeloid leukemia), HL-60 (promyelocytic, leukemia), MCF-7 (breast adenocarcinoma), HeLa (cervical cancer), G361 (malignant melanoma), HOS (human osteosarcoma) and BJ (human foreskin fibroblasts)—were obtained from the American Type Culture Collection (Manassas, VA, USA). These cells were maintained in standard DMEM or RPMI medium (Sigma, MO, USA) supplemented with heat-inactivated fetal bovine serum (10%) with 2 mM L-glutamine and penicillin-streptomycin (1%) under standard cell culture conditions (37° C., 5% CO2 in a humid environment) and subcultured two or three times a week using a standard trypsinization procedure. Approximately 10,000 cells in 80 μl of medium were seeded in a 96-well microtiter plate. After 12 hours of incubation, the compounds to be tested were added in 20 μl aliquots. Control cultures were treated with DMSO alone. […] Serial, 3-fold dilutions (six in total, peak concentrations in 166 μM incubations) of each compound were tested. After 72 hours of incubation, Calcein AM solution (Molecular Probes) was added to a final concentration of 1 μg/ml and the cells were incubated for another hour. Free calcein fluorescence was then quantified using a Fluoroscan Ascent fluorometer (Microsystems), and the percentage of surviving cells in each well was calculated by dividing the OD obtained from each cell by the exposed cells by the mean OD obtained from control wells×100%, Finally, IC50 values (concentration causing a 50% decrease in cellular esterase activity) were calculated for each compound generated from dose-response curves (Krys̆tof et al., 2005, Bioorg. Med. Chem. Lett. 12, 3283-3286). The IC50 values reported here are averages obtained from at least three independent experiments, where the individual replication values fell within 20% of the average. Growth inhibition was calculated using the following equation: […](mean FDwell exposed to drug−mean FDblank)/(mean FDcontrol well−mean FDblank)×100%.
as §2

[6] = tested on: cytokinin-dependent tobacco callus; experiment: Tobacco callus biotest (stimulation of plant cell division); assay type: cell-based, Nicotiana tabacum L. cv. Wisconsin 38; conditions: callus growth at concentration with highest activity; 10^−5 M BAP = 100%
Experimental: Stimulation effect of the cytokinin mesylates was tested in tobacco callus biotest using cytokinin dependent tobacco callus. Cytokinin-dependent tobacco callus Nicotiana tabacum L. cv. […] Subcultivation was carried out every three weeks. Fourteen days before the bioassay, the callus tissue was transferred to the media without BAP. Biological activity was determined from the increase in fresh callus weight after four weeks of cultivation. Five replicates were prepared for each cytokinin concentration and the entire test was repeated twice. […] Relative activity of the compound at this concentration was calculated (Tab. 15). The activity obtained for 10^−5 M 6-benzylaminopurine (BAP) was postulated as 100%. The cytokinin bases to be tested were dissolved in dimethylsulfoxide (DMSO) and the solution brought up to 10^−3 M with distilled water. The mesylate salts were dissolved directly in distilled water.

[7] = tested on: HL-60 (promyelocytic, leukemia); experiment: In vitro cytotoxicity, Calcein AM assay, HL60; assay type: cell-based; conditions: Homo sapiens, HL-60, 72 h, 3-day Calcein-AM assay
From the text: as §1, §2

[8] = tested on: CEM (T-lymphoblastic leukemia); experiment: In vitro cytotoxicity, Calcein AM assay, CEM; assay type: cell-based; conditions: 72 h, 3-day Calcein-AM assay
From the text: as §1, §2

Structure (SMILES)	IC50 [1] [µM]	IC50 [2] [µM]	IC50 [3] [µM]	IC50 [4] [µM]	IC50 [5] [µM]	activity (%) [10^−5 mol · l^−1 BAP = 100%] [6] [%]	IC50 [7] [µM]	IC50 [8] [µM]
Clc1ccccc1CNc1ncnc2nc[nH]c12 [2ClBAP, 6-(2-chlorobenzylamino)purine]	164	84.9	101	> 167	56.6	93	110	58.4
Fc1ccccc1CNc1ncnc2nc[nH]c12 [2FBAP, 6-(2-fluorobenzylamino)purine]	> 167	> 167	136		106			98
Clc1cccc(CNc2ncnc3nc[nH]c23)c1 [3ClBAP, 6-(3-chlorobenzylamino)purine]	> 167	> 167			149	94	> 167	> 167
Fc1cccc(CNc2ncnc3nc[nH]c23)c1 [3FBAP, 6-(3-fluorobenzylamino)purine]	163	> 167	105		> 167		> 167	> 167
Fc1ccc(CNc2ncnc3nc[nH]c23)cc1 [4FBAP, 6-(4-fluorobenzylamino)purine]	> 167	> 167	> 167		> 167		59.2	66.4
COc1ccc(CNc2ncnc3nc[nH]c23)cc1 [4MeOBAP, 6-(4-methoxybenzylamino)purine]	> 167	> 167	> 167	> 167	≥ 167		> 167	> 167
